In ChEMBL document CHEMBL5303304, “EUbOPEN Chemogenomics Library - IncuCyte” (2023):

Columns and labels:
Type in all cases: toxicity, cell-based
[1] = tested on: Fibroblast; assay: Incucyte cell viability with human fibroblast; details: 10 µM, compound concentration 10 uM
[2] = tested on: HEK-293T; assay: Incucyte cell viability with HEK293T; details: human, 10 µM, compound concentration 10 uM
[3] = tested on: U2OS; assay: Incucyte cell viability with U2OS; details: human, 10 µM, compound concentration 10 uM
Further: unitless GR value; below 1 slowed growth and below 0 cell loss.

SMILES | Growth Rate ([1]; 0 h, replicate number 2) | Growth Rate ([1]; 6 h, replicate number 1) | Growth Rate ([1]; 18 h, replicate number 2) | Growth Rate ([1]; 24 h, replicate number 2) | Growth Rate ([2]; 6 h, replicate number 1) | Growth Rate ([2]; 6 h, replicate number 2) | Growth Rate ([2]; 12 h, replicate number 1) | Growth Rate ([2]; 12 h, replicate number 2) | Growth Rate ([2]; 18 h, replicate number 2) | Growth Rate ([2]; 24 h, replicate number 2) | Growth Rate ([3]; 6 h, replicate number 1) | Growth Rate ([3]; 12 h, replicate number 2) | Growth Rate ([3]; 18 h, replicate number 2) | Growth Rate ([1]; 6 h, replicate number 2) | Growth Rate ([1]; 12 h, replicate number 2) | Growth Rate ([3]; 0 h, replicate number 1) | Growth Rate ([3]; 12 h, replicate number 1) | Growth Rate ([3]; 18 h, replicate number 1) | Growth Rate ([3]; 24 h, replicate number 1) | Growth Rate ([3]; 24 h, replicate number 2) | also measured
CC(=O)N1CCN(c2ccc(OCC3COC(Cn4ccnc4)(c4ccc(Cl)cc4Cl)O3)cc2)CC1 (configuration not stated) [KETOCONAZOLE] | -0.79 | 0.47 | 0.96 | 0.89 | -0.34 | -0.16 | 0.05 | 0.03 | 0.32 | 0.38 | 0.7 | 0.63 | 0.99 | – | – | – | – | – | – | – | Growth Rate ([1]; 12 h, replicate number 1): -1; Growth Rate ([2]; 18 h, replicate number 1): 0.34; Growth Rate ([2]; 24 h, replicate number 1): 0.6; Growth Rate ([3]; 0 h, replicate number 2): -0.98; Growth Rate ([3]; 6 h, replicate number 2): 0.94
Cc1c[nH]c(-c2cnc(NCCNc3ccc(C#N)cn3)nc2-c2ccc(Cl)cc2Cl)n1 [LADUVIGLUSIB] | – | 0.56 | -0.3 | -0.28 | 0.35 | 0.14 | 0.49 | 0.43 | 0.7 | 0.75 | 0.47 | 0.87 | 0.93 | 0.81 | -0.19 | 0.54 | 0.48 | 0.83 | 0.56 | 0.99 | Growth Rate ([1]; 12 h, replicate number 1): -0.47; Growth Rate ([1]; 18 h, replicate number 1): -0.4; Growth Rate ([1]; 24 h, replicate number 1): -0.33; Growth Rate ([2]; 0 h, replicate number 1): 0.82; Growth Rate ([2]; 0 h, replicate number 2): 0.92; Growth Rate ([2]; 18 h, replicate number 1): 0.58; Growth Rate ([2]; 24 h, replicate number 1): 0.71
O=C(O)CCCc1cc2cc(Cl)ccc2n1S(=O)(=O)c1ccc2ncsc2c1 [LANIFIBRANOR] | 0.65 | 0.58 | – | – | 0.78 | 0.49 | – | 0.73 | 0.59 | 0.63 | – | – | – | 0.28 | 0.76 | – | 0.94 | – | – | – | Growth Rate ([2]; 0 h, replicate number 1): 0.87; Growth Rate ([2]; 0 h, replicate number 2): -0.8
CS(=O)(=O)CCNCc1ccc(-c2ccc3ncnc(Nc4ccc(OCc5cccc(F)c5)c(Cl)c4)c3c2)o1 [LAPATINIB] | – | -0.42 | 0.7 | – | – | 0.95 | – | 0.94 | 0.95 | 0.87 | 0.66 | 0.92 | 0.99 | 0.69 | 0.65 | 0.96 | 0.78 | 0.86 | 0.9 | 0.98 | Growth Rate ([1]; 0 h, replicate number 1): 0.88; Growth Rate ([2]; 0 h, replicate number 1): 0.86; Growth Rate ([3]; 6 h, replicate number 2): 0.93
C=CC(=O)Nc1cc(Nc2nccc(-n3cc(CN(C)C)c(-c4ccccc4)n3)n2)c(OC)cc1N1CCOCC1 [LAZERTINIB] | – | 0.27 | – | 0.86 | 0.45 | – | – | – | – | – | -0.48 | 0.92 | 0.96 | -0.96 | 0.67 | – | 0.19 | 0.4 | 0.78 | 0.91 | Growth Rate ([1]; 12 h, replicate number 1): -1; Growth Rate ([2]; 0 h, replicate number 2): 0.8; Growth Rate ([3]; 0 h, replicate number 2): -0.99; Growth Rate ([3]; 6 h, replicate number 2): 0.77
CN[C@@H](C)C(=O)N[C@H](C(=O)N1CCC[C@H]1c1nc(C(=O)c2ccc(F)cc2)cs1)C1CCCCC1 [LCL-161] | – | – | 0.88 | 0.85 | 0.22 | 0.84 | 0.4 | 0.95 | – | – | 0.45 | – | – | 0.19 | – | -0.08 | 0.96 | 0.91 | – | – | Growth Rate ([2]; 0 h, replicate number 2): -0.96; Growth Rate ([2]; 18 h, replicate number 1): 0.53; Growth Rate ([2]; 24 h, replicate number 1): 0.84
CN1C(=O)c2c(nn(Cc3ccc(-c4cccc(F)n4)cc3)c2Nc2ccccc2)N2C1=N[C@@H]1CCC[C@@H]12.O=P(O)(O)O [LENRISPODUN PHOSPHATE] | – | – | 0.94 | – | – | – | – | 0.71 | 0.79 | 0.83 | 0.84 | – | – | – | 0.65 | 0.51 | 0.5 | 0.67 | 0.68 | – | Growth Rate ([1]; 0 h, replicate number 1): -1; Growth Rate ([2]; 0 h, replicate number 1): 0.85; Growth Rate ([2]; 0 h, replicate number 2): 0.18
C[C@@H]1C[C@H](N)C[C@H](c2ccncc2NC(=O)c2ccc(F)c(-c3c(F)cccc3F)n2)C1 [LGH-447] | 0.09 | – | 0.58 | 0.44 | -0.02 | 0.11 | 0.2 | 0.54 | 0.54 | 0.57 | -0.22 | – | – | 0.93 | 0.9 | – | 0.59 | 0.82 | 0.98 | 0.96 | Growth Rate ([1]; 12 h, replicate number 1): 0.96; Growth Rate ([1]; 18 h, replicate number 1): 0.87; Growth Rate ([1]; 24 h, replicate number 1): 0.67; Growth Rate ([2]; 18 h, replicate number 1): 0.27; Growth Rate ([2]; 24 h, replicate number 1): 0.36
C[C@H](CCC(=O)O)[C@H]1CC[C@H]2[C@@H]3CC[C@@H]4C[C@H](O)CC[C@]4(C)[C@H]3CC[C@]12C [LITHOCHOLIC ACID] | 0.27 | – | 0.87 | 0.89 | – | 0.73 | – | 0.67 | 0.77 | – | 0.93 | – | – | – | 0.76 | -0.56 | 0.68 | 0.74 | 0.83 | – | Growth Rate ([2]; 0 h, replicate number 1): 0.14
CN1[C@@H](CC(=O)c2ccccc2)CCC[C@H]1C[C@H](O)c1ccccc1.Cl [LOBELINE HYDROCHLORIDE] | -0.71 | 0.48 | – | 0.83 | 0.43 | 0.24 | 0.62 | – | – | – | 0.83 | – | 1 | 0.28 | 0.64 | 0.28 | 0.92 | – | – | 0.87 | Growth Rate ([1]; 18 h, replicate number 1): 0.91; Growth Rate ([1]; 24 h, replicate number 1): 0.58; Growth Rate ([3]; 0 h, replicate number 2): -0.67
CC(C)CC(=O)Nc1cncc(-c2ccc3[nH]nc(-c4nc5c(-c6cccc(F)c6)cncc5[nH]4)c3c2)c1 [LORECIVIVINT] | -0.25 | -1 | -0.37 | -0.13 | -0.99 | -0.98 | -0.89 | -0.78 | -0.58 | -0.44 | -0.98 | -0.62 | -0.47 | -0.98 | -0.68 | – | -0.71 | -0.52 | -0.44 | -0.42 | Growth Rate ([1]; 0 h, replicate number 1): -0.18; Growth Rate ([2]; 18 h, replicate number 1): -0.67; Growth Rate ([2]; 24 h, replicate number 1): -0.41; Growth Rate ([3]; 0 h, replicate number 2): -0.42; Growth Rate ([3]; 6 h, replicate number 2): -0.82
Fc1ccc(-c2c3cccc(C(F)(F)F)c3nn2Cc2ccc(F)cc2Cl)cc1 [LXR-623] | – | -0.18 | -0.04 | 0.03 | 0.77 | 0.3 | 0.75 | 0.57 | 0.76 | 0.73 | – | 0.95 | 0.94 | 0.35 | 0.12 | – | – | – | – | 0.9 | Growth Rate ([1]; 12 h, replicate number 1): -0.03; Growth Rate ([1]; 18 h, replicate number 1): -0.12; Growth Rate ([1]; 24 h, replicate number 1): -0.06; Growth Rate ([2]; 0 h, replicate number 1): 0.13; Growth Rate ([2]; 0 h, replicate number 2): -0.86; Growth Rate ([2]; 18 h, replicate number 1): 0.77; Growth Rate ([2]; 24 h, replicate number 1): 0.91; Growth Rate ([3]; 0 h, replicate number 2): 0.79; Growth Rate ([3]; 6 h, replicate number 2): 0.69
CC(C)(C)C(=O)NCc1ccc(Cl)c(C(=O)Nc2ncc[nH]2)c1 [LY-3031207] | 0.1 | 0.85 | – | – | – | – | – | – | – | – | – | 0.95 | 0.97 | -0.3 | 0.86 | 0.65 | – | – | – | 0.94 | Growth Rate ([1]; 24 h, replicate number 1): 0.89; Growth Rate ([2]; 0 h, replicate number 1): 0.13; Growth Rate ([2]; 0 h, replicate number 2): -0.13
CNC1(C)C2CCC(C2)C1(C)C.Cl (configuration not stated) [MECAMYLAMINE HYDROCHLORIDE] | 0.92 | 0.44 | – | – | 0.95 | 0.89 | 0.74 | 0.84 | 0.89 | 0.91 | 1 | 0.97 | 0.64 | – | 0.66 | 0.92 | – | 0.93 | 0.98 | 0.73 | Growth Rate ([1]; 0 h, replicate number 1): 0.75; Growth Rate ([1]; 12 h, replicate number 1): -1; Growth Rate ([1]; 18 h, replicate number 1): 0.43; Growth Rate ([3]; 0 h, replicate number 2): -0.76; Growth Rate ([3]; 6 h, replicate number 2): 0.24
